Data taken from patent US20250388593A1 (MITSUBISHI TANABE PHARMA CORPORATION, priority 2023, published 2025).

Each molecule was assayed against CRBN truncate (318-426) (Homo sapiens (Human), UniProt Q96SW2) (assay: Measurement of molecular interactions using surface plasmon resonance (SPR), Biacore T200). Conditions: 25° C., immobilized CRBN truncate, upper limit of measurement 200 μM.
Assay type: binding
Protocol: The instrument used was the Biacore T200 (manufactured by Cytiva). The CRBN truncate (318-426) was obtained by expressing a construct with an Avi-tag added at the C-terminus. The sensor chip used was Sensor Chip SA (manufactured by Cytiva). The CRBN truncate was immobilized using the affinity between SA (streptavidin) on the sensor chip and the Avi-tag. The running buffer was a mixture of 10 mM HEPES pH 7.5, 150 mM NaCl, 1 mM TCEP, 0.005% Tween 20, and 2% DMSO. […] Contact time and dissociation time were set at 60 seconds and 120 seconds, respectively.

CRBN truncate (318-426), sequence (Q96SW2 318-426): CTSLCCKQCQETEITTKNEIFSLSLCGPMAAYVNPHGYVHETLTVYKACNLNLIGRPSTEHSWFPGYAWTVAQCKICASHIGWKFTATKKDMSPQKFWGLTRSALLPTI

SMILES | Kd
CC(C)(C)OC(=O)COc1cnc(N2CC3(CC(=O)N(C4CCC(=O)NC4=O)C3=O)C2)nc1 (centres unmarked) [Example 234] | ≥ 100 µM
CC(C)(C)OC(=O)CCCCCNc1ccc(C(=O)N2CCC3(CCCC(=O)NC3=O)C2)cc1 (centres unmarked) [Example 300, tert-Butyl 6-[4-(6,8-dioxo-2,7-diazaspiro[4.6]undecane-2-carbonyl)anilino]hexanoate] | < 50 µM
CC(C)(C)OC(=O)NCCCCCN1CC2(CC(=O)N(C3CCC(=O)NC3=O)C2=O)C1 (centres unmarked) [Example 50, tert-Butyl N-[5-[6-(2,6-dioxopiperidin-3-yl)-5,7-dioxo-2,6-diazaspiro[3.4]octan-2-yl]pentyl]carbamate] | ≥ 100 µM
O=C1CCCC2(CCN(c3ccc([N+](=O)[O-])cc3)C2)C(=O)N1 (centres unmarked) [Example 80, 2-(4-Nitrophenyl)-2,7-diazaspiro[4.6]undecane-6,8-dione] | < 50 µM
CC1(N2CC=CC(=O)NC2=O)C(=O)N(CC(=O)OCc2ccccc2)c2ccccc21 (centres unmarked) [Example 283, Benzyl 2-[3-(2,7-dioxo-4H-1,3-diazepin-3-yl)-3-methyl-2-oxoindol-1-yl]acetate] | 50 to 100 µM
Cc1sc2c(c1C)C(c1ccc(Cl)cc1)=N[C@@H](CC(=O)NCCCCCCCCNC(=O)CN1C(=O)[C@@](C)(N3CCCC(=O)NC3=O)c3ccccc31)c1nnc(C)n1-2 [Example 352, 2-[(9S)-7-(4-Chlorophenyl)-4,5,13-trimethyl-3-thia-1,8,11,12-tetraazatricyclo[8.3.0.02,6]trideca-2(6),4,7,10,12-pentaen-9-yl]-N-[8-[[2-[3-(2,4-dioxo-1,3-diazepan-1-yl)-3-methyl-2-oxoindol-1-yl]acetyl]amino]octyl]acetamide] | < 50 µM
CC(C)(C)OC(=O)c1ccc(N2CCC3(CC2)COCC(=O)NC3=O)nc1 [Example 16, tert-Butyl 6-(10,12-dioxo-8-oxa-3,11-diazaspiro [5.6]dodecan-3-yl) pyridine-3-carboxylate] | ≥ 100 µM
CC(C)(C)OC(=O)c1ccc(N2CCC3(CCCC(=O)NC3=O)CC2)nc1 [Example 94, tert-Butyl 6-(7,9-dioxo-3,8-diazaspiro [5.6]dodecan-3-yl) pyridine-3-carboxylate] | 50 to 100 µM
Cc1sc2c(c1C)C(c1ccc(Cl)cc1)=N[C@@H](CC(=O)NCCCCCCCCNC(=O)c1cc3c(N4CCC5(CCCC(=O)NC5=O)C4)ncnc3n1C)c1nnc(C)n1-2 (stereo partly drawn) [Example 328, N-[8-[[2-[(9S)-7-(4-Chlorophenyl)-4,5,13-trimethyl-3-thia-1,8,11,12-tetraazatricyclo[8.3.0.02,6]trideca-2(6),4,7,10,12-pentaen-9-yl]acetyl]amino]octyl]-4-(6,8-dioxo-2,7-diazaspiro[4.6]undecan-2-yl)-7-methylpyrrolo[2,3-d]pyrimidine-6-carboxamide] | < 50 µM
COC(=O)c1ccc(CN2CCC3(CCCC(=O)NC3=O)C2)cc1 (centres unmarked) [Example 34, Methyl 4-[(6,8-dioxo-2,7-diazaspiro[4.6]undecan-2-yl)methyl]benzoate] | ≥ 100 µM
CC(C)(C)OC(=O)c1ccnc(N2CCC3(CCCC(=O)NC3=O)C2)c1 (centres unmarked) [Example 91, tert-Butyl 2-(6,8-dioxo-2,7-diazaspiro [4.6]undecan-2-yl) pyridine-4-carboxylate] | 50 to 100 µM
Cc1sc2c(c1C)C(c1ccc(Cl)cc1)=N[C@@H](CC(=O)NCCCCCCc1cccc3c(C(=O)N4CCC5(CCCC(=O)NC5=O)C4)cccc13)c1nnc(C)n1-2 (stereo partly drawn) [Example 324, 2-[(9S)-7-(4-chlorophenyl)-4,5,13-trimethyl-3-thia-1,8,11,12-tetraazatricyclo[8.3.0.02,6]trideca-2(6),4,7,10,12-pentaen-9-yl]-N-[6-[5-(6,8-dioxo-2,7-diazaspiro[4.6]undecane-2-carbonyl)naphthalen-1-yl]hexyl]acetamide] | < 50 µM
CCOC(=O)c1ccc2nc(N3CCC4(CCCC(=O)NC4=O)C3)sc2c1 (centres unmarked) [Example 73, Ethyl 2-(6,8-dioxo-2,7-diazaspiro[4.6]undecane-2-yl)-1,3-benzothiazole-6-carboxylate] | < 50 µM
CC(C)(C)[Si](C)(C)OC1c2cccc(Br)c2CC1N1CC=CC(=O)NC1=O (centres unmarked) [Example 307] | ≥ 100 µM
CC(C)(C)OC(=O)CCCCCN1CC2(CC(=O)N(C3CCC(=O)NC3=O)C2=O)C1 (centres unmarked) [Example 229, tert-Butyl 6-[6-(2,6-dioxopiperidin-3-yl)-5,7-dioxo-2,6-diazaspiro[3.4]octan-2-yl]hexanoate] | ≥ 100 µM

Further lines, results first:

Kd | SMILES
< 50 µM | Cc1sc2c(c1C)C(c1ccc(Cl)cc1)=N[C@@H](CC(=O)NCCCCCCCNC(=O)Cn1c(=O)c(=O)n(C3CCCC(=O)NC3=O)c3ccccc31)c1nnc(C)n1-2 (stereo partly drawn) [Example 350, 2-[(9S)-7-(4-chlorophenyl)-4,5,13-trimethyl-3-thia-1,8,11,12-tetraazatricyclo[8.3.0.02,6]trideca-2(6),4,7,10,12-pentaen-9-yl]-N-[7-[[2-[4-(2,7-dioxoazepan-3-yl)-2,3-dioxo-quinoxalin-1-yl]acetyl]amino]heptyl]acetamide]
< 50 µM | C[C@@H]1Cc2c([nH]c3ccccc23)[C@@H](c2cnc(N3CCC(CN(C)CCCCCCCc4cccc5c4n(C)c(=O)n5C4CCCC(=O)NC4=O)CC3)nc2)N1CC(C)(C)F (stereo partly drawn) [Example 360-3, 3-[4-[7-[[1-[5-[(1R,3R)-2-(2-fluoro-2-methyl-propyl)-3-methyl-1,3,4,9-tetrahydropyrido[3,4-b]indol-1-yl]pyrimidin-2-yl]-4-piperidyl]methyl-methyl-amino]heptyl]-3-methyl-2-oxo-benzimidazol-1-yl]azepane-2,7-dione]
≥ 100 µM | O=C1CCCC2(CCN(c3ccc([N+](=O)[O-])cc3)C(=O)C2)C(=O)N1 (centres unmarked) [Example 225, 3-(4-Nitrophenyl)-3,8-diazaspiro [5.6]dodecane-4,7,9-trione]
< 50 µM | CC(C)(C)OC(=O)c1cccc(N2CCC3(CCCC(=O)NC3=O)C2)c1 (centres unmarked) [Example 123, tert-Butyl 3-(6,8-dioxo-2,7-diazaspiro [4.6]undecan-2-yl) benzoate]
50 to 100 µM | CC(C)(C)OC(=O)c1ccnc(N2CC3(CC(=O)N(C4CCC(=O)NC4=O)C3=O)C2)c1 (centres unmarked) [Example 46, tert-Butyl 2-[6-(2,6-dioxopiperidin-3-yl)-5,7-dioxo-2,6-diazaspiro[3.4]octan-2-yl]pyridine-4-carboxylate]
50 to 100 µM | CC(=O)Nc1cccc(C2(C)CCCC(=O)NC2=O)c1 (centres unmarked) [Example 134, N-[3-(3-Methyl-2,7-dioxoazepan-3-yl)phenyl]acetamide]
≥ 100 µM | Nc1ccc(C(=O)N2CCC3(CCCC(=O)NC3=O)C2)cc1 (centres unmarked) [Example 155, 2-(4-Aminobenzoyl)-2,7-diazaspiro[4.6]undecane-6,8-dione]
50 to 100 µM | CC(C)(C)OC(=O)CCc1ccc2c(c1)oc(=O)n2C1CCCC(=O)NC1=O (centres unmarked) [Example 260, tert-Butyl 3-[3-(2,7-dioxoazepan-3-yl)-2-oxo-1,3-benzoxazol-6-yl]propanoate]
≥ 100 µM | Cn1ccc2c(N3CC4(CC(=O)N(C5CCC(=O)NC5=O)C4=O)C3)ncnc21 (centres unmarked) [Example 235, 6-(2,6-Dioxopiperidin-3-yl)-2-(7-methylpyrrolo[2,3-d]pyrimidin-4-yl)-2,6-diazaspiro[3.4]octane-5,7-dione]
< 50 µM | Cc1sc2c(c1C)C(c1ccc(Cl)cc1)=N[C@@H](CC(=O)NCCCCCCCCNC(=O)CCc1ccc3c(c1)sc(=O)n3C1CCCC(=O)NC1=O)c1nnc(C)n1-2 (stereo partly drawn) [Example 342, N-[8-[[2-[(9S)-7-(4-chlorophenyl)-4,5,13-trimethyl-3-thia-1,8,11,12-tetraazatricyclo[8.3.0.02,6]trideca-2(6),4,7,10,12-pentaen-9-yl]acetyl]amino]octyl]-3-[3-(2,7-dioxoazepan-3-yl)-2-oxo-1,3-benzothiazol-6-yl]propanamide]
≥ 100 µM | CC(C)(C)OC(=O)c1cccc(N2CCC3(CCCC(=O)NC3=O)C2)n1 (centres unmarked) [Example 92, tert-Butyl 6-(6,8-dioxo-2,7-diazaspiro [4.6]undecan-2-yl) pyridine-2-carboxylate]
50 to 100 µM | Cn1c(=O)n(C2CCCC(=O)NC2=O)c2cccc(-c3ccncc3)c21 (centres unmarked) [Example 221, 3-[3-Methyl-2-oxo-4-(4-pyridyl)benzimidazol-1-yl]azepane-2,7-dione]
≥ 100 µM | O=C1CCCC(NS(=O)(=O)c2ccc(Cl)cc2)C(=O)N1 (centres unmarked) [Example 8, 4-Chloro-N-(2,7-dioxoazepan-3-yl) benzenesulfonamide]
50 to 100 µM | CC(C)(C)OC(=O)/C=C/c1nn(C2CCCC(=O)NC2=O)c2ccccc12 (centres unmarked) [Example 136]
≥ 100 µM | CN1CCN(c2cnn(C3CCCC(=O)NC3=O)c(=O)c2)CC1 (centres unmarked) [Example 272, 3-[4-(4-Methylpiperazin-1-yl)-6-oxopyridazin-1-yl]azepane-2,7-dione]
< 50 µM | O=C1CCC(N2C(=O)CC3(CN(C4CCN(CC(=O)OCc5ccccc5)CC4)C3)C2=O)C(=O)N1 (centres unmarked) [Example 277, Benzyl 2-[4-[6-(2,6-dioxopiperidin-3-yl)-5,7-dioxo-2,6-diazaspiro [3.4]octan-2-yl]piperidin-1-yl]acetate]
50 to 100 µM | COC(=O)c1cccc(CN2CC3(CC(=O)N(C4CCC(=O)NC4=O)C3=O)C2)c1 (centres unmarked) [Example 53, Methyl 3-[[6-(2,6-dioxopiperidin-3-yl)-5,7-dioxo-2,6-diazaspiro[3.4]octan-2-yl]methyl]benzoate]
≥ 100 µM | COC(=O)c1cccc(S(=O)(=O)N(C)C2CCCC(=O)NC2=O)c1 (centres unmarked) [Example 11, Methyl 3-[(2,7-dioxoazepan-3-yl)-methylsulfamoyl]benzoate]
≥ 100 µM | COc1ccc2nn(C3CCCC(=O)NC3=O)nc2c1 (centres unmarked) [Example 251, 3-(5-Methoxybenzotriazol-2-yl)azepane-2,7-dione]
≥ 100 µM | COc1c(OCC(=O)OC(C)(C)C)cccc1C(=O)NC1CCCC(=O)NC1=O (centres unmarked) [Example 68, tert-Butyl 2-[3-[(2,7-dioxoazepan-3-yl)carbamoyl]-2-methoxyphenoxy]acetate]
